Results reported in patent US20250313653A1, “GUEST/HOST INCLUSION COMPLEXES CONTAINING S-NITROSOGLUTATHIONE AND METHODS OF USE THEREOF” (VIRGINIA COMMONWEALTH UNIVERSITY, priority 2022, published 2025).

How the values were obtained:
[1] = GSNO decomposition in the presence of biologically relevant reactants (cysteine, L-ascorbic acid, BSA); type: physicochemical; conditions: for GSNO left after 24 h of storage: 0.1 M GSNO with 20 mg/mL BSA, 37° C.
Method: GSNO was synthesized by nitrosation of reduced L-glutathione in acidified nitrite as previously reported.^52 After collecting GSNO precipitates and washing them using cold water and acetone, GSNO powder was vacuum dried for 4 h and stored at −20° C. GSNO powders were dissolved in phosphate buffer (PB) containing the same mole of Na2HPO4 before the pH adjustment. For example, the formal concentration of Na2HPO4 is 0.1 M when the GSNO concentration is 0.1 M. One hundred μM EDTA was always added to each solution before the solution pH was finally adjusted to 7.4 via NaOH. EDTA is a chelating agent to mask Cu^2+, a S-nitrosothiol catalyst that may exist in solvents and chemicals as an impurity.^53 For solutions with reactive agents, BSA, ascorbic acid, or cysteine was added before the pH adjustment. To prepare GSNO-CD solutions, appropriate amounts of CD powders were dissolved into the GSNO solutions prior to the pH adjustment.
Aqueous GSNO solutions were contained in 1.5 mL disposable polystyrene cuvettes. The cuvette was caped and further sealed with parafilm. The concentrations of GSNO during storage at 37° C. or 25° C. in the dark were monitored by a UV-vis spectrophotometer (Go Direct® Fluorescence/UV-VIS Spectrophotometer) at a wavelength of 545 nm. A 4 W LED white light was used as the light source for the photodecomposition experiment at room temperature. The distance between the light source and the cuvettes was approximately 10 cm. All GSNO decomposition experiments were triplicated, and the GSNO concentration was expressed as mean±standard deviation.

[2] = Stability of GSNO in agar hydrogel (colour fading); type: physicochemical; conditions: 1% agar hydrogel, 0.1 M GSNO, 37° C.
Method: Two grams of agar were dissolved in 100 mL of 0.1 M phosphate buffer at pH 7.4 at 80° C. for 3 h with stirring. GSNO solutions at 0.2 M with or without 0.2 M αCD in 0.1 M phosphate buffer at pH 7.4 were prepared separately. Then, 0.5 mL GSNO solution and 0.5 mL dissolved agar were mixed and put into an ice bath to facilitate gelation.

[3] = NO release from silicone rubber tubes filled with lock solutions; type: physicochemical; conditions: silicone tube filled with 0.1 M GSNO without or with 0.1 M αCD, 37° C.
Method: The NO release was quantified by an ECO PHYSICS NO analyzer (nCLD 66). […] of castor oil was added to NO release solutions as an antifoam agent when 3 mL GSNO or GSNO-CD solutions were tested in an amber glass cell at 37° C. Humidified air was vacuumed into the solution to carry NO continuously into the chemiluminescence detection chamber at a flow rate of 100 cm^3/min. The solutions were stored in sealed amber glass vials between measurements at 37° C. To monitor the NO release from catheters, solutions were filled into 2.5 cm-long medical-grade silicone tubes (HelixMark® 60-011-07, 1.58 mm ID, 2.41 mm OD) that were scaled on both ends with plastic rods. The filled tubes were placed into the amber glass cell containing 5 mL of 0.01 M PBS with 0.1 mM EDTA (PBSE) at 37° C. N2 was used as the carrier gas at a flow rate of 100 cm^3/min to introduce NO into the analyzer. Filled tubes were stored in 10 mL PBSE at 37° C. in the dark between measurements. The soaking PBSE solution was refreshed after each measurement.

S. aureus = experiment: Prevention of extraluminal biofilm on silicone catheters; type: cell-based; conditions: 3-day experiments, 0.1 M GSNO without or with 0.1 M αCD as lock solution, 37° C.
Method: Both biofilm and planktonic bacteria were quantified to evaluate the antibacterial activities of the proposed method. LB medium (25 mg/mL) was used to culture all bacterial strains overnight before performing the antibacterial tests. Segments of medical-grade silicone tubes were all autoclaved. Lock solutions were freshly prepared using the sterilized buffer and filtered through a 0.22 m PES syringe filter. The biofilms on the silicone surface were dip-rinsed 5 times in PBS and detached by 1-min vertexing, 1-min sonication (20% power of a 150 W probe sonifier, Branson Ultrasonics), and another 1-min vertexing for plate counting. When quantifying the planktonic bacteria, the suspension was homogenized by 1-min vertexing. […] After plate incubation at 37° C. overnight, colony-forming units (CFU) of bacteria were counted and converted to CFU/cm^2 for biofilm quantification and CFU/mL for planktonic bacteria quantification. […] In our case, the limit of detection (LOD) is 400 CFU/cm^2 for biofilm quantification and 200 CFU/mL for quantification of planktonic bacteria. […] The statistical significance between groups was determined using a student's t-test.
The overnight S. aureus culture was diluted by LB (0.25 mg/mL) medium to approximately 10^3 CFU/mL. […] The viable bacteria on the outer surface were counted following the treatment.

N[C@@H](CCC(=O)N[C@@H](CSN=O)C(=O)NCC(=O)O)C(=O)O [GSNO, S-nitrosoglutathione]
GSNO lifetime ([1]; 0.1 M GSNO in 0.1 M PB pH 7.4 with 10 mM cysteine or L-ascorbic acid, without αCD): 2 to 3 days
effect on GSNO decomposition rate ([1]; 0.1 M GSNO with 10 mM cysteine or L-ascorbic acid, addition of 0.1 M αCD, 4-day experiments): remarkably reduces the decomposition rate
GSNO left after 24 h of storage ([1]; control group without αCD): 21%
GSNO left after 24 h of storage ([1]; in the presence of 0.1 M αCD): 41%
time the reddish color of GSNO lasts ([2]; with an equal mole of αCD): more than 6 days
time in which the reddish color of GSNO fades ([2]; without αCD): less than 2 days
initial release of NO on day 0 [3]: 14.8×10^−10 mol cm^−2 min^−1
duration of NO release over 0.1×10^−10 mol cm^−2 min^−1 from the catheter exterior ([3]; in pH 7.4 PBSE): 6 days
reduction of bacterial biofilm on the outer catheter surface compared to control solutions (S. aureus): 70%
